Measurements taken from patent US20220265770A1, “TREATING NEURODEGENERATIVE DISEASES WITH PROGRANULIN” (NEURODYN, INC., priority 2008, published 2022).
“Also recorded” adds a separate entry of the source.

Key:
male CD-1 mice [1] = assay: Leg extension reflex following synthetic BSSG exposure; type: in vivo, mouse; settings: 100 mg/day synthetic BSSG for 15 weeks, then normal chow; weekly, week 0-32, vs control p<0.0001
Method: Three month old male CD-1 mice were fed 100 mg/day of synthetic BSSG for 15 weeks, then permitted to age with a diet of normal lab chow. Leg extension was measured weekly from the initiation of the experiment. Testing was performed as described in Wilson et al., 2004 and Wilson et al., 2005.
The leg extension reflex test was used as a measure of motor neuron dysfunction (Barneoud and Curet, 1999). This test was altered to discriminate more subtle behaviors, creating a scale from 0 to 4. […] This scale allows the measure of progression in a continuous manner over time. A score of 0-4 is assigned based on the response shown by the mouse as follows:
4: Complete extension of both legs (normal).
3: Two legs extended with some tremors and/or punching in a leg.
2: One leg extended, 1 retracted, or tremors in both legs.
1: One leg retracted, tremors in other leg.

male CD-1 mice [2] = assay: Open field motor activity (grid crossings) following synthetic BSSG exposure; type: in vivo, mouse; settings: same mice as Example 4; week 28 vs controls, p<0.05
Method: The same mice exposed to BSSG in Example 4 were used to analyze open field motor activity. *=p<0.05 (Student T-test).
For the open field motor activity analysis, mice were placed in a round open field (2 m diameter) for 5 minutes and movements were recorded using a video camera to measure emotionality and exploration (spontaneous motor activity) (Karl et al., 2003). Videos were replayed on a TV and a circular grid was overlaid on the TV screen. Grid crossings were recorded.

[3] = tested on: motor neurons in lumbar cord; assay: Motor neuron quantification (Nissl, ChAT, CTIP2, caspase-3) after 10 weeks BSSG; type: in vivo, mouse; settings: varying doses of synthetic BSSG for 10 weeks, aged 1 or 5 months on normal chow
Text: Six month old male CD-1 mice were fed varying doses of synthetic BSSG for 10 weeks, then allowed to age for 1 month with a diet of normal chow prior to sacrifice (see FIG. 3, panels A-C). Motor neurons were quantified in lumbar cord, by Nissl staining and choline acetyltransferase (ChAT) immunohistochemistry (IHC), as shown in FIG. 3A. Motor neurons were quantified in motor cortex where neurons were detected by IHC against CTIP2 (highly expressed in corticospinal motor neurons), as shown in FIG. 3C. Motor neurons in the lumbar spinal cord of animals permitted to age for 5 months following the cessation of BSSG were quantified after Nissl staining, as shown in FIG. 3D (* P<0.01, ANOVA).
Lumbar spinal cord sections were stained with cresyl violet and ventral horn motor neurons were counted under a 40× objective lens. All motor neurons in the field of view were included in the results. Multiple sections (N=6) from each mouse were used. Counts were conducted on spinal cord sections that were at least 150 μm apart (in the rostral-caudal plane) ensuring that no motor neuron was counted twice. In addition, counts included all apparent motor neurons including motor neurons that may have appeared atrophic or damaged.
Active caspase-3 (Promega, Madison, Wis.) labeling was performed as follows. […] Sections were visualized using fluorescence microscopy. […]

progranulin expression = assay: In situ hybridization of progranulin expression in cervical spinal cord of BSSG fed mice; type: in vivo, mouse
Method: Adult male CD-1 mice were fed a diet of either normal chow or chow containing […] per day of synthetic BSSG. Following 10 weeks of feeding with BSSG-containing chow and a further month with normal lab chow, mice were killed and ISH using progranulin specific antisense riboprobes was performed on frozen sections of cervical spinal cord cut in trans-section. High levels of progranulin expression were detected in the anterior horn cells of the control mouse as shown by the section in FIG. 9A. […] A negative control section is shown in FIG. 9C, incubated with a sense probe.
Adult male CD-1 mice were fed a diet of chow containing 10, 100, or 1000 μg per day of synthetic BSSG. Following 10 weeks of feeding with BSSG-containing chow and a further month with normal lab chow, mice were killed and ISH using progranulin specific riboprobes was performed on frozen sections of cervical spinal cord cut in trans-section. […] Additionally, there is a more pronounced loss of progranulin expression per cell as BSSG exposure increases.

spinal motor neurons = assay: Spinal motor neuron counts and ChAT in BSSG challenged mice treated with PGRN lentivirus; type: in vivo, mouse
NSC-34 cells [4] = settings: literature (Tabata et al.); cited from earlier work
PC12 cells = assay: Protection against MPTP toxicity in PC12 cells (MTT); type: cell-based; settings: 4 nM progranulin 24 h pretreatment; 0-1000 μM MPTP 24 h
Method: PC12 cells were grown on collagen-coated 96-well plates, in Dulbecco's minimal essential medium (DMEM) in the presence of 10% fetal calf serum (FCS) supplemented with glutamine, penicillin and streptomycin. One day after plating (at 60-70% confluence, 40,000 cells/well), the growth medium was replaced by low-serum (2% FCS) medium with 4 nM progranulin (PGRN+) or without progranulin (PGRN−) (FIG. 19). […] 43(5-6):155-158 (2007)]

NSC-34 cells [5] = assay: BSSG-induced toxicity in NSC-34 and NSC-34-hPGRN cells (MTT); type: cell-based
Method: Normal NSC-34 and a stable NSC-34 transfectant that over expressed human PGRN (NSC-34-hPGRN) NCS34 were maintained in culture using DMEM supplemented with 5% (v/v) fetal calf serum (FCS). Cells were aliquoted in 96-well plates at a density of 8,000 cells/well in 200 uL of DMEM 5% FCS.d After two hours the neurotoxin Beta-sitosteryl glucoside (BSSG) was added at concentrations of 0, 100, 250, 500, 1000 and 2500 ng/mL with a final culture volume of 250 uL along with 0.1% (v/v) DMSO throughout. As a negative control for cell proliferation/survival, a series of wells were washed and media replaced with DMEM containing no FCS. Following 72 hours cell viability was measured using the MTT assay (Vybrant MTT Cell proliferation Assay; Invitrogen) according to manufacturer's instructions.
To determine if PGRN was capable of protecting NSC-34 cells against BSSG neurotoxicity a stable transfectant was developed to over express human PGRN constitutively.

NSC-34 cells [6] = assay: NSC-34 serum deprivation with hPGRN protein (Alamar Blue); type: cell-based; settings: hPGRN 100 ng/ml, Day 4, Alamar Blue
Method: Normal NSC-34 cells were maintained in culture using DMEM supplemented with 5% (v/v) fetal calf serum (FCS). Cells were aliquoted in 96-well plates at a density of 6,000 cells/well in 200 uL of DMEM 5% FCS. After 2 hours of culture (to ensure cell adhesion) media was removed, cells washed 1× with PBS and DMEM serum free medium with or without hPGRN (100 ng/ml) added to the cells. Following one and four days of culture remaining metabolically active cells were detected using the Alamar Blue® methodology (Molecular Probes/Invitrogen) following the manufacturer's instructions.

rat motor neurons = settings: literature (Van Damme et al.); cited from earlier work

Molecule	leg extension reflex (score 0-4) (male CD-1 mice [1])	open field motor activity (grid crossing) (male CD-1 mice [2])	motor neurons in lumbar spinal cord [3]	neuropathology and loss of progranulin expressing cells in cervical spinal cord (progranulin expression; 10, 100 or 1000 μg per day BSSG, 10 weeks plus 1 month normal chow)	progranulin expression in anterior horn cells of cervical spinal cord (ISH) (progranulin expression; 1000 μs per day synthetic BSSG 10 weeks plus 1 month normal chow)	numbers of ChAT positive motor neurons (spinal motor neurons; control (saline treated) BSSG exposed mice)	choline acetyl transferase (ChAT) activity in anterior horn cells (spinal motor neurons; saline treated BSSG exposed mice relative to all other treatment groups)	cytotoxicity in NSC-34 cell line (NSC-34 cells [4])	cell viability against MPTP (MTT) (PC12 cells)	cell survival in serum free cultures (MTT) (NSC-34 cells [5]; PGRN over expression, 72 hours, no FCS)	protection against BSSG neurotoxicity (MTT) (NSC-34 cells [5]; stable transfectant over expressing human PGRN, 72 hour, 1000 and 2500 ng/mL BSSG)	increase in cell survival following serum starvation (NSC-34 cells [6]) [fold]	survival of rat motor neurons under serum deprivation (rat motor neurons)
CC[C@H](CC[C@@H](C)[C@H]1CC[C@H]2[C@@H]3CC=C4C[C@@H](O[C@@H]5O[C@H](CO)[C@@H](O)[C@H](O)[C@H]5O)CC[C@]4(C)[C@H]3CC[C@]12C)C(C)C [BSSG, β-sitosterol β-D-glucoside]	decline in leg extension reflex	significantly decreased movement	Progressive loss of motor neurons; also recorded: dose dependent loss of motor neuron health	more pronounced neuropathology	decreased in intensity and was observed in fewer cells of the anterior horn	appeared to be reduced	decreased activity	cause cytotoxicity	–	–	–	–	–
Progranulin: growth factor-like protein; human progranulin SEQ ID NO: 2 (protein, listed as Homo sapiens) MWTLVSWVALTAGLVAGTRCPDGQFCPVACCLDPGGASYSCCRPLLDKWPTTLSRHLGGPCQVDAHCSAGHSCIFTVSGTSSCCPFPEAVACGDGHHCCPRGFHCSADGRSCFQRSGNNSVGAIQCPDSQFECPDFSTCCVMVDGSWGCCPMPQASCCEDRVHCCPHGAFCDLVHTRCITPTGTHPLAKKLPAQRTNRAVALSSSVMCPDARSRCPDGSTCCELPSGKYGCCPMPNATCCSDHLHCCPQDTVCDLIQSKCLSKENATTDLLTKLPAHTVGDVKCDMEVSCPDGYTCCRLQSGAWGCCPFTQAVCCEDHIHCCPAGFTCDTQKGTCEQGPHQVPWMEKAPAHLSLPDPQALKRDVPCDNVSSCPSSDTCCQLTSGEWGCCPIPEAVCCSDHQHCCPQGYTCVAEGQCQRGSEIVAGLEKMPARRASLSHPRDIGCDQHTSCPVGQTCCPSLGGSWACCQLPHAVCCEDRQHCCPAGYTCNVKARSCEKEVVSAQPATFLARSPHVGVKDVECGEGHFCHDNQTCCRDNRQGWACCPYRQGVCCADRRHCCPAGFRCAARGTKCLRREAPRWDAPLRDPALRQLL	–	–	–	–	–	–	–	–	protective effect	increased cell survival	protected NSC-34 cells	2.5	increased survival of rat motor neurons
